Data on 73 molecules can be found in PubChem BioAssay AID179 (DTP/NCI, 2004).

Structures are written as SMILES. Calls of active or inactive are those of the source.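 The calls were made as follows: active = compounds giving half or more protection of infected cells from virus-caused growth loss, again on retest; inactive = the rest.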

In this experiment the test system is CEM cells HIV-1 protection, formazan growth assay. Description: NCI AIDS Antiviral Assay. Conditions: for IC50: measured here: growth of uninfected CEM cells. In outline: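 Human CEM cells, uninfected and HIV-1-infected, received five drug concentrations, and growth was read by soluble formazan assay. Compounds giving at least 50% protection were retested; reproducible 100% protection defined confirmed active.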

Take `CC(=O)OCC(c1ccccc1)N1C(=O)C(OC(C)=O)[C@H](OC(C)=O)C1=O` (stereo partly specified): the EC50 was > 661 µM and the IC50 was > 661 µM. With `COc1ccc2c(c1)OC[C@H]1c3cc(O)c(O)cc3O[C@@H]21`, the outcome was inactive.

Take `C/C=C/[C@@H](C(=O)OC)N1C(=O)c2ccccc2[C@H]1O`: the EC50 is > 200 µM and the IC50 is > 200 µM. Regarding `Cc1ccccc1[B-]12OCC[N+]1(CNC(=O)C1=C(O)C3(O)C(=O)C4=C(O)c5c(O)cccc5C(C)(O)C4CC3C(N(C)C)C1=O)CCO2` (stereo unspecified), the EC50 is > 53.7 µM and the IC50 is > 53.7 µM. Turning to `O=C1NC2CCCCCC2C12CCCCC2` (stereo unspecified), the result was inactive. Same read-out and setting: the value for `Cc1oc(N)c(C#N)c1C` was “inactive”; that for `CC(=O)NC1C(O)CC(O)(C(=O)O)OC1C(O)C(O)CO` (stereo unspecified) was “inactive”.

For `CCCCc1c2c(nc3c1CCc1cc4cc5c(nc4nc1-3)-c1nc3c(c(CCCC)c1CC5)CCCC3=O)C(=O)CCC2`, the EC50 was > 100 µM and the IC50 came to 0.457 µM.

Consider `Cn1c2c(c(=O)n(C)c1=O)C(C(=O)O)CC(=O)N2` (stereo unspecified), for which the EC50 was > 200 µM and the IC50 was determined as 170 µM. For `O=C(O)CCC(=O)c1ccc2c(c1)C(C(=O)O)CC2` (stereo unspecified), in that order: > 200 µM and > 200 µM.

For the molecule `Cc1cccc2c1CCC21OC(=O)c2c1cc(F)c1ccccc21` (stereo unspecified), the EC50 is > 39.8 µM and the IC50 stood at 14.8 µM. Turning to `CC(=O)NC(CCCCNC(=O)OC(C)(C)C)C(=O)O` (stereo unspecified), the EC50 was > 200 µM and the IC50 was > 200 µM. For the molecule `Cc1c(N=Nc2ccc(Br)cc2)c(=O)n(-c2ccccc2)c(=O)n1-c1nc2ccccc2[nH]1`, the EC50 is > 89.1 µM and the IC50 was found to be 85.1 µM.

For the molecule `Cc1csc([C@H]2CCC3[C@@H]4CC=C5C[C@@H](OC(=O)CCC(=O)O)CC[C@]5(C)C4CC[C@@]32C)n1` (stereo partly specified), the EC50 was > 52.5 µM and the IC50 is 33.1 µM. For `NC(=O)c1n[nH]c(C2OC(CO)C(O)C2O)n1` (stereo unspecified), in that order: > 200 µM and 170 µM. Consider `O=[N+]([O-])c1ccc(C2=NOC3COC4C=CC=CC4OCC23)cc1` (stereo unspecified), for which the EC50 was > 30.2 µM and the IC50 is > 30.2 µM. Regarding `O=C1C(=O)N(c2cccc(C(F)(F)F)c2)C(=S)N1c1ccccc1`, the EC50 is > 200 µM and the IC50 is 30.9 µM. For `Cc1cc(-c2ccccn2)oc(=O)c1NC(=O)c1ccccc1`, in that order: > 200 µM and 30.2 µM. On the same counts, the results for `CC(CO)[C@H]1OC(=O)C=C2[C@@]13O[C@@H]3[C@H]1OC(=O)[C@@]3(C)[C@H]4O[C@H]4C[C@@]2(C)[C@@H]13` (stereo partly specified) are > 2 µM and 0.776 µM. As for `CC1(C)c2ccccc2C(C)(C)[N+]1(C)C`, the EC50 is > 200 µM and the IC50 was 123 µM.

Take `CNS(=O)(=O)NN(C)S(=O)(=O)c1ccccc1`: the EC50 is > 891 µM and the half-maximal inhibitory concentration (IC50) turned out to be 148 µM. For `CN1N=C(c2ccccc2)c2cc(Cl)ccc2N=C1N/N=C/c1ccc(N(C)C)cc1`, in that order: > 200 µM and > 200 µM.

For the molecule `COc1ccccc1C1C(C#N)C(=O)NC(=O)C1C#N` (stereo unspecified), the EC50 is > 200 µM and the IC50 was > 200 µM. For the molecule `CCOC(=O)C(N=C(c1ccccc1)c1ccccc1)N(C(=O)OC(C)(C)C)C(=O)OC(C)(C)C` (stereo unspecified), the outcome was inactive.

On to `O=c1oc2ccccc2c(O)c1-c1cccc2ccccc12`, for which the outcome was inactive.

Consider `CNc1cc(C)ccc1S(=O)(=O)c1ccccc1[N+](=O)[O-]`, for which the concentration giving a half-maximal response (EC50) is 0.219 µM and the IC50 is 30.2 µM.

`Oc1ccccc1C1C=C(c2ccccc2)NC(N2CCCCC2)=C1c1nc2ccccc2[nH]1` (stereo unspecified): the result was inactive.

As for `C=CCC(C)(C(=O)NCCC)C(=O)c1ccccc1O` (stereo unspecified), the result was inactive. Take `CN(C)/C=C1\CCc2ccc([N+](=O)[O-])cc2C1=O`: the EC50 was > 200 µM and the IC50 is 93.3 µM. On the same counts, the results for `O=C1CCC2(c3ccc(Cl)cc3)Nc3cc([N+](=O)[O-])ccc3N12` (stereo unspecified) are > 21.9 µM and > 21.9 µM.

`CN(c1ccccc1Cl)S(=O)(=O)c1ccccc1`: the EC50 was > 200 µM and the IC50 was determined as 70.8 µM.

As to `CC1(C)CNC[C@@]2(C)OCCO[C@@]3(C)CNCC(C)(C)[N-]C(=O)[C@@](C)(CNCC(C)(C)[N-]C3=O)OCCO[C@](C)(CNCC(C)(C)[N-]C2=O)C(=O)[N-]1.[Cu+2].[Cu+2]`, the EC50 was > 200 µM and the IC50 was > 200 µM. Consider `Nc1ccn(C2CC(CO)C(CO)C2)c(=O)n1` (stereo unspecified), for which the EC50 was > 209 µM and the IC50 is > 209 µM.

Consider `CCc1cc2c(O)c(c1)Cc1cc(CC)cc(c1O)Cc1cc(CC)cc(c1O)Cc1cc(CC)cc(c1O)Cc1cc(CC)cc(c1O)Cc1cc(CC)cc(c1O)Cc1cc(CC)cc(c1O)C2`, for which the EC50 is > 10 µM and the IC50 was > 10 µM. Consider `COc1ccc(NC(=O)C(=O)c2c(O)c3ccc(O)cc3oc2=O)c([N+](=O)[O-])c1`, for which the EC50 was > 447 µM and the IC50 turned out to be 229 µM. On the same counts, the results for `O=C1C2CC[C@@H]3C(=O)C(Cl)(Cl)[C@@H]3CCC2C1(Cl)Cl` (stereo partly specified) are > 200 µM and > 200 µM. As to `C=CCOC1=C(OC(C)=O)C(=O)OC1C1COC(C)(C)O1` (stereo unspecified), the EC50 was > 200 µM and the IC50 worked out at 26.3 µM.

With `CCC(COCC(CC)C(=O)O)C(=O)O` (stereo unspecified), the result was inactive.

Take `c1ccc(CCn2cncn2)cc1`: the EC50 was > 1200 µM and the IC50 is > 1200 µM. Consider `C[C@@H](NC(=O)c1ccccc1SC(=O)OCCCCCl)C(N)=O`, for which the concentration for a half-maximal effect (EC50) was found to be 2.4 µM and the IC50 is 195 µM. As for `Cc1ccc(N=C2S/C(=C3/CCC=C3N3CCOCC3)N(c3ccc(Cl)cc3)C2=Nc2ccc(C)cc2)cc1`, the EC50 is > 200 µM and the concentration for half-maximal inhibition (IC50) was > 200 µM.

Consider `COc1cc(/C=N/Nc2nnc3c4ccccc4c4ncccc4c3n2)cc(OC)c1OC`, for which the EC50 was > 100 µM and the 50% inhibitory concentration (IC50) stood at 57.5 µM. On to `CC1(C)CC(=O)C2=C(C1)Nc1ccccc1S2`, for which the outcome was inactive. On the same count and under the same terms, the value for `CC1CN=C(N(C(=O)Nc2ccccc2)C2CCCCC2)S1` (stereo unspecified) was “inactive”. In the case of `COc1ccc(N=NC(=O)NC(Cc2ccccc2)C(=O)O)cc1` (stereo unspecified), the EC50 was > 200 µM and the IC50 was determined as 20 µM.

Take `Cc1nn(C)cc1P(=S)(c1ccccc1)c1ccccc1`: the EC50 was > 16.6 µM and the IC50 was > 16.6 µM. For `Cc1cc(OC(F)(F)c2nc3ccccc3o2)cc(C)c1C`, the EC50 was 25.1 µM and the IC50 stood at 26.9 µM. In the case of `COc1cc(O)c2c(c1O)C(=O)c1cc(C)ncc1C2=O`, the outcome was inactive.

With `NC(=O)C(c1ccccc1)N1CCCCC1` (stereo unspecified), the result was inactive.

`CCOC(=O)/C(C#N)=C1/C(O)=C(C(=O)OC)C(C(=O)OC)=C1C(=O)OC`: the result was inactive. Consider `O=C(O)C#CC(=O)O`, for which the EC50 is > 1580 µM and the IC50 is > 1580 µM.

Consider `O=C1c2ccccc2C(=O)C1(Br)C(Cl)c1ccccc1` (stereo unspecified), for which the EC50 was > 200 µM and the concentration for half-maximal inhibition (IC50) came out at 3.55 µM. Take `CC#COP(=O)(OCC)OCC`: the EC50 was > 251 µM and the IC50 was > 251 µM. In the case of `COC(=O)CCCC=C(c1cc(Cl)c(OC)c(C(=O)OC)c1)c1cc(Cl)c(OC)c(C(=O)OC)c1`, the EC50 was 1.62 µM and the IC50 came to 21.4 µM. Take `CCCC(O)c1ccc2[nH]c3c(C)cc([N+](=O)[O-])c(C)c3c2c1` (stereo unspecified): the EC50 was > 4.68 µM and the IC50 was > 4.68 µM. As to `Nc1ncnc2c1ncn2C1C=CC(CP(=O)(O)O)C1` (stereo unspecified), the EC50 is > 200 µM and the IC50 is > 200 µM. Regarding `Cc1[nH]nc2c(N(C)C)ncnc12`, the EC50 was > 200 µM and the concentration for half-maximal inhibition (IC50) is 170 µM.

As to `Nc1[nH]c(=S)nc2nc3c(c(-c4ccccc4)c12)CCCC3`, the EC50 was > 50.1 µM and the IC50 is > 50.1 µM. With `COc1ccc2c(c1)OCC1=C2Oc2ccccc2C1`, the EC50 was > 200 µM and the IC50 was determined as 26.9 µM. For `O=CC(O)C(O)C(O)C(O)CON1C[C@@H](O)C(O)[C@@H](O)C1` (stereo partly specified), in that order: > 200 µM and > 200 µM.

Regarding `NS(=O)(=O)c1ccc(NNc2c3ccccc3nc3c(C(=O)Nc4ccc(S(=O)(=O)Nc5ncccn5)cc4)cccc23)cc1`, the EC50 was > 50.1 µM and the IC50 turned out to be 26.9 µM.

As to `CC1(C)SSC(C)(C)SS1`, the EC50 is > 200 µM and the IC50 is > 200 µM. As for `C/C(CCn1[nH]c(=O)ccc1=O)=N\NC(=O)C(=O)NN`, the EC50 is > 1.95 µM and the IC50 is > 1.95 µM. Regarding `O=[C]=[Fe+].O=[C]=[Fe].[C-]1=CCC=C1.[CH-]=O.[CH-]=O.c1cc[cH-]c1`, the EC50 was > 200 µM and the IC50 came to 21.4 µM. On to `COc1ccc(NC(=O)/C(=N/NC(N)=S)C2C(=O)NC(=S)NC2=O)c(OC)c1`, for which the EC50 is > 589 µM and the IC50 is > 589 µM. With `OC12c3ccccc3C1CCCCCC21OCCCO1` (stereo unspecified), the EC50 was > 200 µM and the half-maximal inhibitory concentration (IC50) was > 200 µM. As to `CC[C@]1(Cc2ccc(OC)c(OC)c2)C=[N+]([O-])O[C@H](OCc2ccccc2)[C@@H]1OC(C)=O`, the EC50 was > 200 µM and the concentration for half-maximal inhibition (IC50) amounted to 38 µM.

Consider `O=C1c2ccccc2C(c2ccccc2)(N2CCCCC2)N1c1ccccc1` (stereo unspecified), for which the EC50 was > 17.4 µM and the IC50 was > 17.4 µM. With `CCCCCCCCCCCCCC/C=C\C(CC(=O)O)C(=O)O` (stereo unspecified), the EC50 was > 15.1 µM and the IC50 was > 15.1 µM. Take `CC(C)C1/C(=N/O)CC(c2ccccc2)N(N=O)C1c1ccccc1` (stereo unspecified): the EC50 was > 200 µM and the IC50 was 66.1 µM. For the molecule `Cc1ccc(C)c(C(=O)c2ccccc2)c1C(=O)O`, the EC50 was > 200 µM and the IC50 was > 200 µM. Take `CC(=O)C1(C)CCC2C3C=C(C)C4=CC(=O)CCC4(C)C3CCC21C` (stereo unspecified): the EC50 was > 117 µM and the IC50 was 16.2 µM. Turning to `C/C=C/C(=O)[O-].N.N.N.N.N.[Co+3].[O-][Cl+3]([O-])([O-])[O-]`, the outcome was inactive.
